Results published in ChEMBL document CHEMBL6182883, “Discovery of a series of novel 3-sulfonamido benzoic acid derivatives as promising P2Y14R antagonists for acute lung injury” (Eur J Med Chem, 2025).
Values after ≈ are worked out from the molar mass of the structure shown. Active and inactive are the calls of the source. No cut-off for these calls is given here.

Experiments:
[1] = target: T1, P2Y purinoceptor 14 (Homo sapiens) (UniProt Q15391); assay: Antagonist activity at human P2Y14R expressed in HEK293 cells assessed as inhibition of UDPG-induced Ca2+ level at 5 uM by Fluo-4 dye based fluorescence assay relative to control; type: functional, cell-based
T1 sequence (whole entry): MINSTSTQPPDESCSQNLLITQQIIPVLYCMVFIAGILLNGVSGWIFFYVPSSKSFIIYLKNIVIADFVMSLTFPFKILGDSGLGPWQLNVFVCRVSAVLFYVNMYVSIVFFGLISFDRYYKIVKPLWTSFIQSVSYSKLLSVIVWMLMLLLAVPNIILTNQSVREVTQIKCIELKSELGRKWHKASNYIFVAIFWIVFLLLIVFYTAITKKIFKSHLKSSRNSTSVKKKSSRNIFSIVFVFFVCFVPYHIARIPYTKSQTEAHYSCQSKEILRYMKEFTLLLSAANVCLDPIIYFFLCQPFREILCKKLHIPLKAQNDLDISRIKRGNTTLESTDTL

[2] = target: T2, P2Y purinoceptor 14 (Homo sapiens, UniProt Q15391); assay: Antagonist activity at human P2Y14R expressed in HEK293 cells assessed as inhibition of UDPG-induced Ca2+ level by Fluo-4 dye based fluorescence assay; type: functional, cell-based
T2 sequence (Q15391 whole entry): T1 sequence (whole entry)

[3] = Cmax in SD […] at 10 mg/kg, po; type: ADME, organism-based; details: in vivo
[4] = Oral bioavailability in SD […] at 10 mg/kg; type: ADME, organism-based; details: in vivo
[5] = test system: Mus musculus; assay: (§1) Antiinflammatory activity in LPS-induced C57BL/6 mouse ALI model assessed as reduction in interstitial hemorrhage at 6 mg/kg, po administered once daily via gavage for 7 days followed by endotoxin challenge at 1 hr post last dose and subsequent LPS stimulation and measured after 24 hrs by H and E staining based histopathological assay; type: functional, organism-based; details: time 8.0 day
[6] = test system: Mus musculus; assay: Antiinflammatory activity in LPS-induced C57BL/6 mouse ALI model assessed as reduction in MPO level in BALF at 6 mg/kg, po administered once daily via gavage for 7 days followed by endotoxin challenge at 1 hr post last dose and subsequent LPS stimulation and measured after 24 hrs by ELISA; type: functional, organism-based; details: time 8.0 day
[7] = test system: Mus musculus; assay: as §1, with “appearance of intact alveolar structures” for “reduction in interstitial hemorrhage”; type: functional, organism-based; details: time 8.0 day
[8] = Tmax in SD […] at 10 mg/kg, po; type: ADME, organism-based; details: in vivo
[9] = AUC (0 to 24 hrs) in SD […] at 5 mg/kg, iv; type: ADME, organism-based; details: in vivo
[10] = Aqueous solubility of the compound in pH 4 PBS buffer measured after 24 hrs by shake flask method; type: physicochemical
[11] = test system: Mus musculus; assay: as §1, with “alveolar wall thickening” for “interstitial hemorrhage”; type: functional, organism-based; details: time 8.0 day
[12] = test system: Mus musculus; assay: (§2) Antiinflammatory activity in LPS-induced C57BL/6 mouse ALI model assessed as reduction in TNF-alpha expression in BALF at 2 to 6 mg/kg, po administered once daily via gavage for 7 days followed by endotoxin challenge at 1 hr post last dose and subsequent LPS stimulation and measured after 24 hrs by ELISA; type: functional, organism-based; details: dose 2-6 mg/kg, time 8.0 day
[13] = test system: Mus musculus; assay: as §2, with “IL-1beta” for “TNF-alpha”; type: functional, organism-based; details: dose 2-6 mg/kg, time 8.0 day
[14] = test system: Mus musculus; assay: as §1, with “neutrophil infiltration” for “interstitial hemorrhage”; type: functional, organism-based; details: time 8.0 day
[15] = Cmax in SD […] at 5 mg/kg, iv; type: ADME, organism-based; details: in vivo
[16] = Aqueous solubility of the compound in pH 7.4 PBS buffer measured after 24 hrs by shake flask method; type: physicochemical
[17] = test system: Mus musculus; assay: as §1, with “inflammatory response in lung” for “interstitial hemorrhage at 6 mg/kg, po”, “via oral” for “via”; type: functional, organism-based; details: dose 2-6 mg/kg, time 8.0 day
[18] = test system: Mus musculus; assay: Antiinflammatory activity in LPS-induced C57BL/6 mouse ALI model assessed as reduction in IL-6 expression in BALF at 2 to 6 mg/kg, po administered once daily via gavage for 7 days followed by endotoxin challenge at 1 hr post last dose and subsequent LPS stimulation and measured after 24 hrs by ELISA; type: functional, organism-based; details: dose 2-6 mg/kg, time 8.0 day
[19] = test system: Mus musculus; assay: as §1, with “at 2” for “at 6”; type: functional, organism-based; details: time 8.0 day
[20] = test system: Mus musculus; assay: as §1, with “in neutrophil infiltration” for “in interstitial hemorrhage”, “at 2” for “at 6”; type: functional, organism-based; details: time 8.0 day
[21] = Clearance in SD […] at 10 mg/kg, po; type: ADME, organism-based; details: in vivo
[22] = Half life in SD […] at 5 mg/kg, iv; type: ADME, organism-based; details: in vivo
[23] = target: T2, P2Y purinoceptor 14; assay: (§3) Binding affinity to P2Y14R (unknown origin) assessed as increase in response unit by surface plasmon resonance assay
[24] = target: T1, P2Y purinoceptor 14 (Homo sapiens); assay: as §3; details: filed as antagonist
[25] = Tmax in SD […] at 5 mg/kg, iv; type: ADME, organism-based; details: in vivo
[26] = AUC (0 to 24 hrs) in SD […] at 10 mg/kg, po; type: ADME, organism-based; details: in vivo
[27] = Half life in SD […] at 10 mg/kg, po; type: ADME, organism-based; details: in vivo
[28] = test system: Mus musculus; assay: Antiinflammatory activity in LPS-induced C57BL/6 mouse ALI model assessed as reduction in TNF-alpha expression in BALF at 2 mg/kg, po administered once daily via gavage for 7 days followed by endotoxin challenge at 1 hr post last dose and subsequent LPS stimulation and measured after 24 hrs by ELISA; type: functional, organism-based; details: time 8.0 day
[29] = test system: Mus musculus; assay: Antiinflammatory activity in LPS-induced C57BL/6 mouse ALI model assessed as reduction in MPO level in BALF at 2 mg/kg, po administered once daily via gavage for 7 days followed by endotoxin challenge at 1 hr post last dose and subsequent LPS stimulation and measured after 24 hrs by ELISA; type: functional, organism-based; details: time 8.0 day
[30] = test system: Mus musculus; assay: as §1, with “in alveolar wall thickening” for “in interstitial hemorrhage”, “at 2” for “at 6”; type: functional, organism-based; details: time 8.0 day
[31] = test system: Mus musculus; assay: Antiinflammatory activity in LPS-induced C57BL/6 mouse ALI model assessed as reduction in IL-6 expression in BALF at 2 mg/kg, po administered once daily via gavage for 7 days followed by endotoxin challenge at 1 hr post last dose and subsequent LPS stimulation and measured after 24 hrs by ELISA; type: functional, organism-based; details: time 8.0 day
[32] = test system: Mus musculus; assay: Antiinflammatory activity in LPS-induced C57BL/6 mouse ALI model assessed as reduction in IL-1beta expression in BALF at 2 mg/kg, po administered once daily via gavage for 7 days followed by endotoxin challenge at 1 hr post last dose and subsequent LPS stimulation and measured after 24 hrs by ELISA; type: functional, organism-based; details: time 8.0 day

O=C(O)c1cc(NS(=O)(=O)c2ccc(Br)cc2)cc(-c2ccc(C3CCNCC3)cc2)c1
inhibition ([1]; filed as antagonist): 81%

O=C(O)c1cc(NS(=O)(=O)Cc2ccccc2)cc(-c2ccc(C3CCNCC3)cc2)c1
inhibition ([1]; filed as antagonist): 81.6%

O=C(O)c1cc(NS(=O)(=O)c2ccc(C(F)(F)F)cc2)cc(-c2ccc(C3CCNCC3)cc2)c1
inhibition ([1]; filed as antagonist): 90.8%
IC50 [2]: 23.2 nM

O=C(O)c1cc(NS(=O)(=O)c2ccc(F)cc2)cc(-c2ccc(C3CCNCC3)cc2)c1
inhibition ([1]; filed as antagonist): 85.2%
IC50 [2]: 49.6 nM

O=C(O)c1cc(NS(=O)(=O)CCc2ccccc2F)cc(-c2ccc(C3CCNCC3)cc2)c1
inhibition ([1]; filed as antagonist): 86.4%
IC50 [2]: 38.2 nM

O=C(O)c1cc(NS(=O)(=O)CCc2ccc(Br)cc2)cc(-c2ccc(C3CCNCC3)cc2)c1
inhibition ([1]; filed as antagonist): 96.7%
IC50 [2]: 19.6 nM

O=C(O)c1cc(NS(=O)(=O)c2ccccc2)cc(-c2ccc(C3CCNCC3)cc2)c1
inhibition ([1]; filed as antagonist): 81.5%

O=C(O)c1cc(NS(=O)(=O)c2ccc(OC(F)(F)F)cc2)cc(-c2ccc(C3CCNCC3)cc2)c1
inhibition [1]: 32.1%

O=C(O)c1cc(NS(=O)(=O)c2ccccc2F)cc(-c2ccc(C3CCNCC3)cc2)c1
inhibition ([1]; filed as antagonist): 82.3%

CC(C)c1ccc(S(=O)(=O)Nc2cc(C(=O)O)cc(-c3ccc(C4CCNCC4)cc3)c2)cc1
inhibition ([1]; filed as antagonist): 69.5%

O=C(O)c1cc(NS(=O)(=O)c2ccc(-c3ccc(Br)cc3)cc2)cc(-c2ccc(C3CCNCC3)cc2)c1
inhibition ([1]; filed as antagonist): 68.9%

O=C(O)c1cc(NS(=O)(=O)CCc2ccc(F)cc2)cc(-c2ccc(C3CCNCC3)cc2)c1
inhibition ([1]; filed as antagonist): 85.4%
IC50 [2]: 42.6 nM

O=C(O)c1cc(NS(=O)(=O)CCc2ccc(C(F)(F)F)cc2)cc(-c2ccc(C3CCNCC3)cc2)c1
Cmax [3]: 984 ng/mL
bioavailability [4]: 44%
Activity [5]: Active; Substantial Reduction Observed
Activity [6]: Active
Activity [7]: Active
Tmax [8]: 1.55 h
inhibition ([1]; filed as antagonist): 99.6%
AUC [9]: 1764 ng·h/mL
solubility thermodynamic at 24 h [10]: 127 µg/mL (≈ 238 µM)
Activity [11]: Active
Activity [12]: Active
Activity [13]: Active
Activity [14]: Active
Cmax [15]: 731 ng/mL
solubility thermodynamic at 24 h [16]: 108 µg/mL (≈ 203 µM)
Activity [17]: Dose-dependent-effect
Activity [18]: Active
Activity [19]: Not active; No Significant Interstitial Hemorrhage Observed
Activity [20]: Active
CL/F [21]: 18.6 mL/min/kg
IC50 [2]: 5.6 nM
half-life [22]: 2.6 h
Kd [23]: 1730 nM
Activity [24]: Dose-dependent-effect
Tmax [25]: 0.933 h
AUC(0-t) [26]: 2170 ng·h/mL
half-life [27]: 4.5 h

CC(C)(C)c1ccc(S(=O)(=O)Nc2cc(C(=O)O)cc(-c3ccc(C4CCNCC4)cc3)c2)cc1
inhibition ([1]; filed as antagonist): 49.6%

O=C(O)c1cc(NS(=O)(=O)Cc2ccc(Br)cc2)cc(-c2ccc(C3CCNCC3)cc2)c1
inhibition ([1]; filed as antagonist): 83.1%

O=C(O)c1cc(NS(=O)(=O)c2cccc(F)c2)cc(-c2ccc(C3CCNCC3)cc2)c1
inhibition ([1]; filed as antagonist): 76.2%

C[C@@H]1C[C@H]2[C@@H]3CCC4=CC(=O)C=C[C@]4(C)[C@@]3(F)[C@@H](O)C[C@]2(C)[C@@]1(O)C(=O)CO
Activity [28]: Active
Activity [29]: Active
Activity [20]: Active
Activity [30]: Active
Activity [31]: Active
Activity [32]: Active

O=C(O)c1cc(NS(=O)(=O)Cc2ccc(Cl)cc2)cc(-c2ccc(C3CCNCC3)cc2)c1
inhibition ([1]; filed as antagonist): 80.1%

O=C(O)c1cc(NS(=O)(=O)c2ccc(-c3ccc(C(F)(F)F)cc3)cc2)cc(-c2ccc(C3CCNCC3)cc2)c1
inhibition ([1]; filed as antagonist): 76.5%
